Source: patent US20240369551A1 (priority 2021, published 2024)
Values joined by “and” are separate entries in the source; they are usually repeats but may differ in a detail not shown here. Equal entries are not always repeated. Where two headings read alike, the source gives them in different places. Ends that are not written are not given here.

Tests used:
[1] = tested on: SARS-CoV-2 IgG antibodies; assay: Immunoassay with epitope-tagged AuNPs (aggregation, relative change in absorbance at 534 nm); type: binding, rabbit; details: for decrease of normalized plasmon peak intensity (534 nm): anti-SARS-CoV-2 S1 IgG; for LOD: detection of anti-SARS-CoV-2 S1 IgG; for limit of detection (LOD): single epitope-functionalized AuNPs (streptavidin-biotin), respective SARS-CoV-2 IgG; for nanosensor response: 100 nM anti-S1 IgG
Method: (§1) SARS-CoV-2 IgG antibodies and control antibodies were first diluted in 1×PBS. In a typical experiment, 5 μL of prediluted antibody solution was added to 45 μL of epitope-functionalized AuNPs. The mixture was spun briefly for 20 s at 6000 rpm using a portable microcentrifuge (Profuge 6K) and incubated for another 30 min at room temperature. Absorbance spectra of the supernatant were recorded using a microplate reader (Synergy 2; BioTek). Sensor response was calculated as the relative change in absorbance at 534 nm. For a time-profile study, the absorbance spectra were recorded at 10 min intervals. For a salt-induced aggregation test, solutions of AuNPs were treated with 1×PBS and the absorbance spectra were recorded after a 30 min incubation. For a selectivity screen against other human coronaviruses, the concentration of antibodies was 100 nM. To investigate the sensitivity of AuNPs in human plasma, SARS-CoV-2 IgG rabbit antibodies were spiked into PBS containing various concentrations of human plasma, such that the final plasma concentration after mixing with AuNPs was 0%, 10%, and 20% (v/v).

[2] = tested on: COVID19 anti-S1 IgG; assay: UV-vis aggregation test of peptide-coated nanoparticles (Examples 1, 6, 7, 8); type: binding; details: for response to COVID-19 IgGs: single epitope thiol-AuNP conjugation with thiolyated spacer CALNN
[3] = tested on: MERS IgGs; type: binding
[4] = tested on: SARS-CoV IgG; type: binding
[5] = tested on: normal human IgG; assay: Immunoassay with epitope-tagged AuNPs, control IgG; type: binding
Method: as §1

[6] = tested on: HCoV-HKU1 IgGs; assay: Immunoassay with epitope-tagged AuNPs, selectivity screen; type: binding; details: 100 nM antibodies
Method: as §1

[7] = biological target: epitope-specific SARS-CoV-2 IgGs; assay: SPR spectroscopy (Biacore T200): IgG binding to immobilized biotinylated peptide epitopes; design: species or system rabbit; details: for binding affinities (estimated Kd, order of magnitude): Example 9, kinetic fitting, streptavidin treated CM5 chip; for Kd: respective target IgG, 25° C.; for apparent Kd: kinetic analysis, very slow dissociation, beyond the instrument sensitivity limit
[8] = tested on: SARS-CoV-2 IgG; assay: Fluorescence polarization (FP) of FITC-labeled epitopes with IgG; type: binding, rabbit; details: 100 nM FITC-labeled epitope, 200 nM IgG, 15 min, 1×PBS
[9] = tested on: COVID19 anti-S2 IgG; assay: UV-vis aggregation test of peptide-AuNP conjugates (Example 2); type: binding; details: streptavidin-biotin conjugates, peptide 10 or 1 μM
Method: Citrate-coated AuNP was functionalized with streptavidin (SA) by mixing 500 nM of SA with 8 nM of citrate-coated AuNP. The mixture was incubated at room temperature for 30 min, and unbound SA was removed from the SA-coated AuNPs (SA-AuNPs) with centrifugation at 12,500 RCF for 15 mins. Then, biotinylated S20P2 or S21P2 peptide (10 or 1 μM) was added to conjugate to the SA-AuNPs. Unreacted peptides were removed from the peptide-AuNP conjugates with centrifugation at 12500 RCF for 12 mins. The conjugates were reconstituted into ultrapure water for further tests with IgG.
For IgG test, 20 μL of COVID19 anti-S2 IgG (SINO Biological) was added to 80 μL of peptide-AuNP conjugates in a 96-well plate. UV-vis spectrum before and after IgG addition are recorded (FIGS. 3A and B). […] For both conjugates, a higher degree of aggregation is observed when lower peptide concentration (1 μM) is used, presumably due to the diluted coating density around AuNP which poses less steric hindrance for binding with IgG.

[10] = real-time kinetic analysis, 1:1 Langmuir model, read-out: Kd from kinetic analysis
[11] = steady-state analysis without dissociation step, read-out: Kd from steady-state analysis

## S14P5-AuNPs: Gold nanoparticles functionalized with S14P5; streptavidin-biotin in Example 10, thiol-gold with or without CALNN spacer in Examples 1 and 6 (TESNKKFLPFQQFGRDIA; also: conjugated to gold nanoparticles via streptavidin-biotin or thiol-gold, with or without CALNN spacer)
[1]; first 10 min
  decrease of normalized plasmon peak intensity (534 nm): 40.2%
[1]; leveling off within 30 min
  decrease of normalized plasmon peak intensity (534 nm): 67.3%
[1]
  LOD: 4.1 nM
  limit of detection (LOD): 4.1 nM
[2]; Example 1: thiol-conjugated S14P5 with CALNN blocking
  IgG concentration giving visible change in colour from red to purple: ≥ 100 nM
[2]; Example 1: thiol-conjugated S14P5 with CALNN blocking, absorbance ratio
  linear range: 10 to 100 nM
[2]; Example 1: thiol-conjugated S14P5 with CALNN blocking, absorbance ratio, 15 min
  LOD: ~30 nM and 4.5 μg/ml
[2]; thiol-AuNP conjugation without spacer, COVID-19 anti-S1 IgG (100 nM)
  binding / nanoparticle aggregation: unable to bind to anti COVID-19 IgGs
[3]
  sensor response: minimal sensor response
[4]
  dose-dependent aggregation response (decrease in plasmon peak intensity): absent
  normalized sensor response: 11.4%
[4]; after 60 min
  normalized sensor response with SARS-CoV IgG relative to SARS-CoV-2 IgG (fold lower): 6 fold
[5]
  dose-dependent aggregation response (decrease in plasmon peak intensity): absent
[6]
  sensor response: minimal sensor response

## GIAVEQDKNTQEVFAQVK [S20P2]
[7]
  binding affinities (estimated Kd, order of magnitude): nM
[7]; [10]
  Kd: ~80 nM and 80 nM
[7]; [11]
  Kd: 510 ± 34 nM
[1]
  limit of detection (LOD): 15.4 nM
[8]
  relative FP increase: significant increase in FP values

## S21P2-AuNPs: Streptavidin-coated gold nanoparticles functionalized with biotinylated S21P2 epitope (PSKPSKRSFIEDLLFNKV; also: biotinylated, bound to streptavidin-coated gold nanoparticles)
[1]
  limit of detection (LOD): 5.1 nM
[3]
  sensor response: minimal sensor response
[6]
  sensor response: minimal sensor response
[9]
  aggregation of peptide-coated AuNPs: significant aggregation

## TESNKKFLPFQQFGRDIA [S14P5]
[7]
  binding affinities (estimated Kd, order of magnitude): pM
  apparent Kd: low pM range
[7]; [10]
  Kd: < 1 nM
[7]; [11]
  Kd: 111 ± 15 nM
[1]
  limit of detection (LOD): 4.1 nM
[2]
  response to COVID-19 IgGs: resulted in nanoparticle aggregation
[8]
  relative FP increase: highest relative FP increase

## NNAAIVLQLPQGTTLPKG [N4P5]
[7]
  binding affinities (estimated Kd, order of magnitude): μM
[7]; [10]
  Kd: ~218 nM and 218 nM
[7]; [11]
  Kd: 1610 ± 120 nM
[1]
  limit of detection (LOD): 25.8 nM
[8]
  relative FP increase: comparably lower percentage of FP increase

## PSKPSKRSFIEDLLFNKV [S21P2]
[7]
  binding affinities (estimated Kd, order of magnitude): pM
  apparent Kd: low pM range
[7]; [10]
  Kd: < 1 nM
[7]; [11]
  Kd: 125 ± 7 nM
[1]
  limit of detection (LOD): 5.1 nM
[2]
  response to COVID-19 IgGs: resulted in nanoparticle aggregation
[8]
  relative FP increase: significant increase in FP values

## S14P5/S21P2-AuNPs: Streptavidin-coated gold nanoparticles functionalized with both biotinylated S14P5 and S21P2 epitopes (peptide 1 TESNKKFLPFQQFGRDIA; peptide 2 PSKPSKRSFIEDLLFNKV; also: biotinylated peptides on streptavidin-coated gold nanoparticle)
[1]; 50 nM of anti-S1 IgG or anti-S2 IgG (FIG. 23)
  recognition of anti-S1 and anti-S2 IgGs of SARS-CoV-2: able to recognize both anti-S1 and anti-S2 IgGs
[1]; 5-fold diluted human plasma
  nanosensor response: 14.6%
[1]; 10-fold diluted human plasma
  nanosensor response: 22.8%
[1]; pure PBS
  nanosensor response: 78.2%
[1]
  LOD: 3.2 nM
